Measurements reported in the Kinase Knowledgebase extract (Sharma et al. 2016).

Experiments:
PIK3CA (human) = PIK3CA (human) (UniProt P42336); test: Assessment of PIK3CA Kinase Activity
PIK3CG (human) = PIK3CG (human) (UniProt P48736); test: Assessment of PIK3CG Kinase Activity
Chain of PIK3CG (human) (P48736 whole entry, looked up): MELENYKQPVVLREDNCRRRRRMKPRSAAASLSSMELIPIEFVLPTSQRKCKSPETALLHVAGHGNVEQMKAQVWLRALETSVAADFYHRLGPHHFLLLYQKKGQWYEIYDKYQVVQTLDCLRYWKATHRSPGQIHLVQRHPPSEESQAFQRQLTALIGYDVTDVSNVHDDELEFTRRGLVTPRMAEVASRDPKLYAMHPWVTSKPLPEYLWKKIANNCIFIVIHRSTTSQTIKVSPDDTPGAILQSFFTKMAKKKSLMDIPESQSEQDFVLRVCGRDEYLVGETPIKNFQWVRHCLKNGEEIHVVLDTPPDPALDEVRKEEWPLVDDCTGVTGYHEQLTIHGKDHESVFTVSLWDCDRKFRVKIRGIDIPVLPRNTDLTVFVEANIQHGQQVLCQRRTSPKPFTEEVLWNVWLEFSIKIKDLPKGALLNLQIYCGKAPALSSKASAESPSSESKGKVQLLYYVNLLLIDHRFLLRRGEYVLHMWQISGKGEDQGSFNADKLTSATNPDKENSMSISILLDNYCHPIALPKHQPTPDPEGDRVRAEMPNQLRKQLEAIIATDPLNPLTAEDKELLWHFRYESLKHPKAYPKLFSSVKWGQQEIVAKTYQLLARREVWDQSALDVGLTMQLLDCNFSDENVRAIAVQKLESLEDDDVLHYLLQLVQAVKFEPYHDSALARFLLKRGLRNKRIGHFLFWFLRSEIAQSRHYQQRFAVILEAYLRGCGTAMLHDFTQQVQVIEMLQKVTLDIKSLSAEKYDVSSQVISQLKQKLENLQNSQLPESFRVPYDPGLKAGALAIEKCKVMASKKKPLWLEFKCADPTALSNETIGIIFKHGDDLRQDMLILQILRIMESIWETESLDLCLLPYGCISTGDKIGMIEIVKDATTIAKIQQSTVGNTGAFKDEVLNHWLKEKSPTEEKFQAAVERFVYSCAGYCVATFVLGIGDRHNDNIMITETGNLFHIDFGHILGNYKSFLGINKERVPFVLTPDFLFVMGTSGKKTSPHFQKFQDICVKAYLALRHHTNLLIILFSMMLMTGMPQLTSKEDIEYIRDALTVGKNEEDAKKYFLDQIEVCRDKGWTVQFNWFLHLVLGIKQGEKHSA

Chain of PIK3CA (human) (P42336 whole entry, looked up): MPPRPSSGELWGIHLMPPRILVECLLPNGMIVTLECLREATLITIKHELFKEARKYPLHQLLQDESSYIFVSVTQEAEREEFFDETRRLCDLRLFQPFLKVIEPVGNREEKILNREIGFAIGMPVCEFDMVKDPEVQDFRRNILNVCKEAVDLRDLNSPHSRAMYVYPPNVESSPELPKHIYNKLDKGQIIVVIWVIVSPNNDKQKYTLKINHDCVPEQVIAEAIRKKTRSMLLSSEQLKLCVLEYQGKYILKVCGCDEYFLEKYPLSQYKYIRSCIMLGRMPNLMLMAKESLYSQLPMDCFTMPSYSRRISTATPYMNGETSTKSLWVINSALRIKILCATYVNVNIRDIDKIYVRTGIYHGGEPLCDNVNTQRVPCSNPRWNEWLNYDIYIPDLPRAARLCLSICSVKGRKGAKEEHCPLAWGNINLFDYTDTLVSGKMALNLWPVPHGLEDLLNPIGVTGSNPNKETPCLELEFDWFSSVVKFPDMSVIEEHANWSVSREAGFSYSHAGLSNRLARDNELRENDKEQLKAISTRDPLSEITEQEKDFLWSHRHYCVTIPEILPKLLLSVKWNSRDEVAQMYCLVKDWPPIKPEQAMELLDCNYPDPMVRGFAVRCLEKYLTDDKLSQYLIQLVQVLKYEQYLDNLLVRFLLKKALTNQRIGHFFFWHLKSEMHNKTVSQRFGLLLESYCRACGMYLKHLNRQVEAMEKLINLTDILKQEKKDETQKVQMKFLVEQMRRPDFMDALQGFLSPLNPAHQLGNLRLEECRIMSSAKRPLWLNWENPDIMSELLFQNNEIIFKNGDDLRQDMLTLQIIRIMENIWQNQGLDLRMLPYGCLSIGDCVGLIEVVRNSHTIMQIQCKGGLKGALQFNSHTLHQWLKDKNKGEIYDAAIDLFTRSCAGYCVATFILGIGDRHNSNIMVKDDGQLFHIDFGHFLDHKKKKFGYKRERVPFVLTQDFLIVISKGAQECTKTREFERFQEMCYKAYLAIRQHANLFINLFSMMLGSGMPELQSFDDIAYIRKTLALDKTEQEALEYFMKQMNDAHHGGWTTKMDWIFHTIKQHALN

SMILES: CN(C)C1CCN(C(=O)c2ccc(NC(=O)Nc3ccc(-c4nc5c(c(N6CCOCC6)n4)CCNC5)cc3)cc2)CC1
- IC50 (PIK3CA (human)): 31 nM
- IC50 (PIK3CG (human)): 224 nM

SMILES: CS(=O)(=O)N1Cc2nc(-c3ccc(NC(=O)Nc4cccnc4)cc3)nc(N3CCOCC3)c2C1
- IC50 (PIK3CA (human)): 45 nM
- IC50 (PIK3CG (human)): 782 nM

SMILES: CNC(=O)Nc1ccc(-c2nc3c(c(N4C5CCC4COC5)n2)CCN(S(C)(=O)=O)C3)cc1
- IC50 (PIK3CA (human)): 582 nM
- IC50 (PIK3CG (human)): > 10000 nM

SMILES: CCCCC(=O)N1CCc2c(nc(-c3ccc(NC(=O)NC)cc3)nc2N2CC3CCC(C2)O3)C1
- IC50 (PIK3CG (human)): 545 nM

SMILES: CCN1CCc2c(nc(-c3ccc(NC(=O)Nc4ccc(C#N)cc4)cc3)nc2N2C3CCC2COC3)C1
- IC50 (PIK3CA (human)): 1650 nM

SMILES: O=C(Nc1ccc(-c2nc3c(c(N4CC5CCC(C4)O5)n2)CNC3)cc1)Nc1cccnc1
- IC50 (PIK3CA (human)): 59 nM
- IC50 (PIK3CG (human)): 1860 nM

SMILES: CCCCCCNC(=O)N1CCc2c(nc(-c3ccc(NC(=O)NC)cc3)nc2N2CC3CCC(C2)O3)C1
- IC50 (PIK3CG (human)): 195 nM

SMILES: CCN1CCc2c(nc(-c3ccc(NC(=O)Nc4ccc(CN5CCN(C)CC5)cc4)cc3)nc2N2C3CCC2COC3)C1
- IC50 (PIK3CA (human)): 1280 nM

SMILES: COCCN1CCc2c(nc(-c3ccc(NC(=O)Nc4ccncc4)cc3)nc2N2CC3CCC(C2)O3)C1
- IC50 (PIK3CA (human)): 101 nM

SMILES: CN(C)C1CCN(C(=O)c2ccc(NC(=O)Nc3ccc(-c4nc5c(c(N6CCOCC6)n4)CCN(S(C)(=O)=O)C5)cc3)cc2)CC1
- IC50 (PIK3CA (human)): 315 nM
- IC50 (PIK3CG (human)): 3110 nM

SMILES: CNC(=O)Nc1ccc(-c2nc3c(c(N4CC5CCC(C4)O5)n2)CCN(S(=O)(=O)c2ccc(C#N)cc2)C3)cc1
- IC50 (PIK3CG (human)): 4000 nM

SMILES: CCN1CCc2c(nc(-c3ccc(NC(=O)Nc4ccc(C(=O)O)cc4)cc3)nc2N2C3CCC2COC3)C1
- IC50 (PIK3CA (human)): 4130 nM

SMILES: CN(C)C1CCN(C(=O)c2ccc(NC(=O)Nc3ccc(-c4nc5c(c(N6C7CCC6COC7)n4)CN(S(C)(=O)=O)C5)cc3)cc2)CC1
- IC50 (PIK3CA (human)): 67 nM
- IC50 (PIK3CG (human)): 573 nM

SMILES: CCN1CCc2c(nc(-c3ccc(NC(=O)Nc4ccc(C(=O)N5CCN(C)CC5)cc4)cc3)nc2N2C3CCC2COC3)C1
- IC50 (PIK3CA (human)): 211 nM

SMILES: O=C(Nc1ccc(-c2nc3c(c(N4CCOCC4)n2)CNC3)cc1)Nc1cccnc1
- IC50 (PIK3CA (human)): 5 nM
- IC50 (PIK3CG (human)): 68 nM

SMILES: CNC(=O)Nc1ccc(-c2nc3c(c(N4CC5CCC(C4)O5)n2)CCN(C(=O)NC2CCCCC2)C3)cc1
- IC50 (PIK3CG (human)): 600 nM

SMILES: CCN1CCc2c(nc(-c3ccc(NC(=O)Nc4ccc(C(=O)N5CCCC5)cc4)cc3)nc2N2C3CCC2COC3)C1
- IC50 (PIK3CA (human)): 220 nM

SMILES: CCN1CCc2c(nc(-c3ccc(NC(=O)NCCF)cc3)nc2N2C3CCC2COC3)C1
- IC50 (PIK3CA (human)): 5780 nM

SMILES: CCN1CCc2c(nc(-c3ccc(NC(=O)Nc4ccncc4)cc3)nc2N2CC3CCC(C2)O3)C1
- IC50 (PIK3CA (human)): 153 nM

SMILES: CCN1CCc2c(nc(-c3ccc(NC(=O)Nc4ccc(C(=O)N(C)C)cc4)cc3)nc2N2C3CCC2COC3)C1
- IC50 (PIK3CA (human)): 554 nM

SMILES: CN1CCN(c2ccc(NC(=O)Nc3ccc(-c4nc5c(c(N6C7CCC6COC7)n4)CCN(CC(F)(F)F)C5)cc3)cc2)CC1
- IC50 (PIK3CA (human)): 1340 nM

SMILES: CN(C)C1CCN(C(=O)c2ccc(NC(=O)Nc3ccc(-c4nc5c(c(N6C7CCC6COC7)n4)CCN(S(C)(=O)=O)C5)cc3)cc2)CC1
- IC50 (PIK3CA (human)): 1330 nM
- IC50 (PIK3CG (human)): > 10000 nM

SMILES: CCCCC(CC)C(=O)N1CCc2c(nc(-c3ccc(NC(=O)NC)cc3)nc2N2CC3CCC(C2)O3)C1 (stereo unspecified)
- IC50 (PIK3CG (human)): 270 nM

SMILES: CN(C)CC(=O)N1CCc2c(nc(-c3ccc(NC(=O)Nc4ccncc4)cc3)nc2N2C3CCC2COC3)C1
- IC50 (PIK3CA (human)): 807 nM

SMILES: CN(C)C1CCN(C(=O)c2ccc(NC(=O)Nc3ccc(-c4nc5c(c(N6C7CCC6COC7)n4)CNC5)cc3)cc2)CC1
- IC50 (PIK3CA (human)): 301 nM
- IC50 (PIK3CG (human)): > 10000 nM

SMILES: CCN1CCc2c(nc(-c3ccc(NC(=O)Nc4ccc(C(N)=O)cc4)cc3)nc2N2C3CCC2COC3)C1
- IC50 (PIK3CA (human)): 1010 nM

SMILES: O=C(Nc1ccncc1)Nc1ccc(-c2nc3c(c(N4C5CCC4COC5)n2)CC[N+](CCF)(CCF)C3)cc1
- IC50 (PIK3CA (human)): 1870 nM

SMILES: CNC(=O)Nc1ccc(-c2nc3c(c(N4CC5CCC(C4)O5)n2)CCN(C(=O)c2ccccc2OC)C3)cc1
- IC50 (PIK3CG (human)): 900 nM

SMILES: CCCCOC(=O)N1CCc2c(nc(-c3ccc(NC(=O)NC)cc3)nc2N2CC3CCC(C2)O3)C1
- IC50 (PIK3CG (human)): 375 nM

SMILES: CC(C)N1CCc2c(nc(-c3ccc(NC(=O)Nc4ccncc4)cc3)nc2N2C3CCC2COC3)C1
- IC50 (PIK3CA (human)): 2470 nM

SMILES: CNC(=O)Nc1ccc(-c2nc3c(c(N4CC5CCC(C4)O5)n2)CCN(C(=O)c2c(F)cccc2F)C3)cc1
- IC50 (PIK3CG (human)): 300 nM

SMILES: O=C(Nc1ccncc1)Nc1ccc(-c2nc3c(c(N4CC5CCC(C4)O5)n2)CCN(CCF)C3)cc1
- IC50 (PIK3CA (human)): 330 nM

SMILES: CNC(=O)Nc1ccc(-c2nc3c(c(N4CC5CCC(C4)O5)n2)CCN(S(=O)(=O)N(C)C)C3)cc1
- IC50 (PIK3CG (human)): 190 nM

SMILES: CC(C)(C)OC(=O)N1CCc2c(nc(-c3ccc(NC(=O)Nc4ccncc4)cc3)nc2N2CC3CCC(C2)O3)C1
- IC50 (PIK3CA (human)): 459 nM

SMILES: CNC(=O)Nc1ccc(-c2nc3c(c(N4CC5CCC(C4)O5)n2)CCN(C(=O)C(C)(C)C)C3)cc1
- IC50 (PIK3CG (human)): 300 nM

SMILES: CC(C)N1CCc2c(nc(-c3ccc(NC(=O)Nc4ccncc4)cc3)nc2N2CC3CCC(C2)O3)C1
- IC50 (PIK3CA (human)): 2030 nM

SMILES: CNC(=O)Nc1ccc(-c2nc3c(c(N4CC5CCC(C4)O5)n2)CCN(C(=O)c2ccc(C(C)(C)C)cc2)C3)cc1
- IC50 (PIK3CG (human)): 3350 nM

SMILES: CCN1CCc2c(nc(-c3ccc(NC(=O)Nc4ccc(OCCN(C)C)cc4)cc3)nc2N2C3CCC2COC3)C1
- IC50 (PIK3CA (human)): 1220 nM

SMILES: CCN1CCc2c(nc(-c3ccc(NC(=O)Nc4ccc(N5CCN(C)CC5)cc4)cc3)nc2N2C3CCC2COC3)C1
- IC50 (PIK3CA (human)): 1920 nM

SMILES: CCN1CCc2c(nc(-c3ccc(NC(=O)Nc4ccc(C(=O)NC)cc4)cc3)nc2N2C3CCC2COC3)C1
- IC50 (PIK3CA (human)): 861 nM

SMILES: C=CCNC(=O)N1CCc2c(nc(-c3ccc(NC(=O)NC)cc3)nc2N2CC3CCC(C2)O3)C1
- IC50 (PIK3CG (human)): 375 nM

SMILES: CCN1CCc2c(nc(-c3ccc(NC(=O)Nc4ccc(CN5CCCC5)cc4)cc3)nc2N2C3CCC2COC3)C1
- IC50 (PIK3CA (human)): 737 nM
